Earlier results, collected in patent US9012464B2, “Salts and polymorphic forms of Afatinib” (Ratiopharm GmbH, priority 2010, dated 2015).

Conditions: acid compound used for forming afatinib salts

pKa1: 0.7
SMILES: O=S(=O)(O)c1ccccc1 [Benzenesulphonic acid]
